Consider four molecules from patent US20060094031A1, “Alpha-L-arabinofuranosidase histochemical reporter gene assay” (Stowers Institute for Medical Research, priority 2004, published 2006).

For data set [1], the system named is β-galactosidase (lacZ) expressed in NIH 3T3 cells. The note with it: for color of cells expressing lacZ after staining with the substrate: histochemical staining. The method, then: (§1) FIG. 1 depicts a schematic of the CMV abfA expression vector. […] NIH 3T3 cells were transfected with CMV-abfA and 30 hours later were fixed with 2% formaldehyde, 0.2% glutaraldehyde for 5 minutes and then processed for histochemical detection of abfA expression using a standard protocol for lacZ detection (5), but substituting Z-ara (0.02%) for X-gal. The synthesis for Z-ara is described in Example 3. Just like X-gal, Z-ara is a colorless water-soluable chromogen that forms an insoluable blue precipitate upon hydrolysis. […] Alternative β-galactosidase substrates to X-gal, 6-chloro-3-indolyl-β-D-galactopyranaside (“Red-gal,” Research Organics, Cleveland, Ohio, USA) and 5-bromo-6-chloro-3-indolyl-β-D-galactopyranoside (“Magenta-gal,” BioSynth AG, Switzerland), allow LacZ^+ cells to appear red instead of blue and thus easily distinguishable from Z-ara positive cells.
(§2) To determine whether α-L-arabinofuranosidase and β-galactosidase could be detected both in the same cell, NHI 3T3 cells were co-transfected with CMV-abfA and with proBGN (7), a plasmid encoding the lacZ gene tagged with a nuclear localization signal. […] One day after transfection cells were fixed followed by in situ visualization of β-galactosidase and α-L-arabinofuranosidase activities by incubation with 0.02% Magenta-gal and 0.02% Z-ara, respectively. Imaging was with a Leica DMR microscope mounted with an Optronics Magnafire digital camera.

The nature of data set [2]: solubility of the chromogen in water. In kind it is physicochemical. The note with it: unhydrolysed chromogen; forms insoluable blue precipitate upon hydrolysis.
In data set [3] the target is T1, α-L-arabinofuranosidase (S. lividans abfA gene) expressed in NIH 3T3 cells (Streptomyces lividans, UniProt P53627).
T1 construct: expressed in transfected cells; host or cells: NIH 3T3 cells transfected with CMV-abfA (pcDNA3 backbone)
T1 sequence (P53627 1-662): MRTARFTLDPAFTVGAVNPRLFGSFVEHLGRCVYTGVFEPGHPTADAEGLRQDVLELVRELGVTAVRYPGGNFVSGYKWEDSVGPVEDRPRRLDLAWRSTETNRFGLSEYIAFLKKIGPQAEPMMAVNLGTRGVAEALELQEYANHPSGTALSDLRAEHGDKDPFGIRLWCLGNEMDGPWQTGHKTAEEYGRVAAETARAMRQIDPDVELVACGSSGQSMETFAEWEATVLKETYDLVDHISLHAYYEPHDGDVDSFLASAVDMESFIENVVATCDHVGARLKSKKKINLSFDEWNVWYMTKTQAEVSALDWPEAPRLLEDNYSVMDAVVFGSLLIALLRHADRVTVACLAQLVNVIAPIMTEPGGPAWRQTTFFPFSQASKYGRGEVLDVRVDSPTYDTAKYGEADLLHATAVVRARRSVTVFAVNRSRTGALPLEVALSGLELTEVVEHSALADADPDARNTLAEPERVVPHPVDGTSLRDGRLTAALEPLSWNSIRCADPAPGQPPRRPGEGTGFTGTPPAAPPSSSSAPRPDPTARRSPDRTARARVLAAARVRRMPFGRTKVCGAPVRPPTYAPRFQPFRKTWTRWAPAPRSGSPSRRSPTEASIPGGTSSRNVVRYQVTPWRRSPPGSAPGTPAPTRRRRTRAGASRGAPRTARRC
Description: histochemical (in situ) detection of abfA expression in transfected mammalian cells with chromogenic substrate. Type of data set: cell-based. The note with it: for color of cells expressing abfA after staining with the substrate: NIH 3T3 cells transfected with CMV-abfA, fixed 30 hours later, substrate 0.02% in lacZ detection protocol. The method, then:
as §1
One feature of the Z-ara substrate is that the 5-bromo-3-indoloxyl-derived final product has birefringent properties.
as §2

Entries after “also recorded” stand apart in the source; their conditions may differ.

Regarding “5-bromo-6-chloro-3-indolyl-β-D-galactopyranoside [Magenta-gal]”, the “color of cells expressing lacZ after staining with the substrate” value (shortened to “color of cells expressing lacZ”) in data set [1] is listed as “red”. Further, in data set [1] (NIH 3T3 co-transfected with CMV-abfA and proBGN (nuclear-localizing β-galactosidase), one day after transfection, 0.02% substrate, FIGS. 2(C), 2(D)), the “staining from lacZ expression in co-transfected cells (dual detection)” value was “red nucleus”.

Take `OC[C@H]1O[C@@H](Oc2c[nH]c3cc(Cl)ccc23)[C@H](O)[C@@H](O)[C@H]1O` [Red-gal, 6-chloro-3-indolyl-β-D-galactopyranaside]: in data set [1], the “color of cells expressing lacZ” value is “red”.

As for `OC[C@H]1O[C@@H](Oc2c[nH]c3ccc(Br)c(Cl)c23)[C@H](O)[C@@H](O)[C@H]1O` [X-gal, 5-bromo-4-chloro-3-indolyl-β-D-galactosidase], the solubility in water entry in data set [2] is reported as “water-soluable”. Besides, the “color of cells expressing abfA after staining with the substrate” value in data set [3] is “no color change; also recorded: no blue staining”.

Take `OC[C@H]1O[C@@H](Oc2c[nH]c3ccc(Br)cc23)C(O)C1O` (stereo partly drawn) [Z-ara, 5-bromo-3-indolyl-α-arabinofuranoside]: the “color of cells expressing lacZ” value in data set [1] was “remain colorless”. Also, the solubility in water entry in data set [2] is “water-soluable”. In addition, the “subcellular location of staining in abfA-expressing cells” value in data set [3] (NIH 3T3, CMV-abfA, FIG. 2(A)) was “predominantly cytoplasmic”. The “appearance of stained AbfA+ cells under polarized light” value in data set [3] (NIH 3T3, CMV-abfA, polarized light, FIG. 2(B)) is listed as “distinct yellow birefringence”. For the same molecule, the “color of cells expressing abfA after staining with the substrate” value in data set [3] is on record as “dark blue”. For the same molecule, in data set [3] (NIH 3T3 co-transfected with CMV-abfA and proBGN, one day after transfection, 0.02% substrate, FIGS. 2(C), 2(D)), the “staining from abfA expression in co-transfected cells (dual detection)” value is “blue cytoplasm”.
